Data from ChEMBL document CHEMBL5154721, “Discovery of HDAC6-Selective Inhibitor NN-390 with in Vitro Efficacy in Group 3 Medulloblastoma” (J Med Chem, 2022).
Activity calls are given as the source filed them. The rule behind the calls is not given here.

Experiments:
[1] = biological target: T1, Protein deacetylase HDAC6 (Homo sapiens) (UniProt Q9UBN7); assay: Inhibition of full length human recombinant HDAC6 in human HD-MB03 cells assessed as increase in acetylation of alpha tubulin at 53 nM for 6 hrs by western blotting anlaysis; format: cell-based
T1 sequence (whole entry): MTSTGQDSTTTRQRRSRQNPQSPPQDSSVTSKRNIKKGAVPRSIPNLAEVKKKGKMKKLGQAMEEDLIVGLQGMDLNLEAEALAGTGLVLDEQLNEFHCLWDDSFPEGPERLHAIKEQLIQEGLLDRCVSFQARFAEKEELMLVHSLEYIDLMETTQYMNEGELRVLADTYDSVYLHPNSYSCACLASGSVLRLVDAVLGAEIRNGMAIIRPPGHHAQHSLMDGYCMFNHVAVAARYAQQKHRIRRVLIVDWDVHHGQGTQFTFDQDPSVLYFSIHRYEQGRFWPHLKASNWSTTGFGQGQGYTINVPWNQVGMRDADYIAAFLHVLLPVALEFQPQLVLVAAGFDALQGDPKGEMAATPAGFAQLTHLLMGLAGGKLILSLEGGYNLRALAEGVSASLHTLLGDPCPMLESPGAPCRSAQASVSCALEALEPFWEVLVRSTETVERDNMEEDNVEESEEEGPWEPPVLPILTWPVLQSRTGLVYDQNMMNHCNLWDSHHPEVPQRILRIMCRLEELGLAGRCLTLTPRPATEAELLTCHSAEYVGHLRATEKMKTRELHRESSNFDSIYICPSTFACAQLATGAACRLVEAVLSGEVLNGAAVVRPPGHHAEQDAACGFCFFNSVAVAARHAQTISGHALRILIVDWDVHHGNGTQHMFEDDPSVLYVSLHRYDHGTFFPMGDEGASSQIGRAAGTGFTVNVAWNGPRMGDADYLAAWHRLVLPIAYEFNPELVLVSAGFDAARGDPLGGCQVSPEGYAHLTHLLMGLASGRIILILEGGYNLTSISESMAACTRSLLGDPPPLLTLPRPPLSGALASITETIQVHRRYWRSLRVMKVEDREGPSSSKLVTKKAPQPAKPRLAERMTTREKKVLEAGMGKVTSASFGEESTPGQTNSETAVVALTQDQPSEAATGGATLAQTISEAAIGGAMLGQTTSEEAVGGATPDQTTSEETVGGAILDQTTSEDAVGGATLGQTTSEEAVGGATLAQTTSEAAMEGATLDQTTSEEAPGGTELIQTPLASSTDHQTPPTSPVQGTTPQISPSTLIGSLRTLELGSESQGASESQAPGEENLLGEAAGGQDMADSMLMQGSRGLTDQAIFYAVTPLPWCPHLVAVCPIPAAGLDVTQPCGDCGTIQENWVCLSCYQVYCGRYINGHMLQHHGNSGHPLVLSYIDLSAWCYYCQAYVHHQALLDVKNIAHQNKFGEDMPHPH

Histone deacetylase 7 = biological target: T2, Histone deacetylase 7 (Homo sapiens, UniProt Q8WUI4); assay: Inhibition of full length human recombinant HDAC7 expressed in Sf9 baculovirus system using FAM-labeled acetylated peptide as substrate by measuring fluorescence intensity by EMSA method
T2 sequence (Q8WUI4 whole entry): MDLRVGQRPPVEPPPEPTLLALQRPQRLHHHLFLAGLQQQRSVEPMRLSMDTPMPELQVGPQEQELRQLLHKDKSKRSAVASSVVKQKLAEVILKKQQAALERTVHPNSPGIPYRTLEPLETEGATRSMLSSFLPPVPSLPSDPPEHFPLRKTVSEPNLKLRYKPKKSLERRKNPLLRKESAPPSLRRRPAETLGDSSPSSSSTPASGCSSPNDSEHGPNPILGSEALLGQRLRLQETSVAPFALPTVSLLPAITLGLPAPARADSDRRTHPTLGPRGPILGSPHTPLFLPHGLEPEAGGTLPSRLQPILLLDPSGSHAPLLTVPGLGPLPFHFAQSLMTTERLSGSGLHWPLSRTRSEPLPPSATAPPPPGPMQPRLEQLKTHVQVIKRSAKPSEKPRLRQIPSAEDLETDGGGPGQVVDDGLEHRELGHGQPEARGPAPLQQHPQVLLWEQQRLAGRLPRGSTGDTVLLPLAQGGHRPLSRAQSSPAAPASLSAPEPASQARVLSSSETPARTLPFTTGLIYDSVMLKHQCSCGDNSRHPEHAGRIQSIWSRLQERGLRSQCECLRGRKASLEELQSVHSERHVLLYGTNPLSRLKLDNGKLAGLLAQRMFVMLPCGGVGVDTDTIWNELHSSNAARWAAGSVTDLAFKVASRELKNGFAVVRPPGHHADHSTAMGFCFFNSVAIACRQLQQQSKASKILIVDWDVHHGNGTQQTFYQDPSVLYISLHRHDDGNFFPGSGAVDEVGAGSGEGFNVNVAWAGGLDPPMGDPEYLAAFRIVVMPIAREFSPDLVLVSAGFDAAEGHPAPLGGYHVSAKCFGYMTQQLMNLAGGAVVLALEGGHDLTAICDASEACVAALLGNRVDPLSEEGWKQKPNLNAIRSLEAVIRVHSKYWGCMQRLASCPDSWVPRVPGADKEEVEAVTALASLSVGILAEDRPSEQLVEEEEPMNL

[2] = Cytotoxicity against human fetal neuronal stem cells assessed as inhibition of cell growth incubated for 72 hrs measured by spectrophotometer analysis; format: toxicity, cell-based, NSC
[3] = Cytotoxicity against human primary pooled fibroblasts cells assessed as inhibition of cell growth incubated for 72 hrs measured by spectrophotometer analysis; format: toxicity, cell-based, Fibroblast
[4] = biological target: T1, Protein deacetylase HDAC6 (Homo sapiens); assay: Inhibition of full length human recombinant HDAC6 in human MV4-11 cells assessed as increase in acetylation of alpha-tubulin at 0.1 uM for 6 hrs by Western blot analysis; format: cell-based
MV4-11 [5] = assay: Induction of apoptosis in human MV4-11 cells assessed as early apoptotic cells at 1 uM after 24 hrs by Annexin V/PI staining based flow cytometric analysis (Rvb=2%); format: functional
MV4-11 [6] = assay: Induction of apoptosis in human MV4-11 cells assessed as late apoptotic cells at 2 uM after 18 hrs by Annexin V/PI staining based flow cytometric analysis; format: functional
in vitro = conditions: human, MRC9 cells

With `CC(C)N(Cc1ccc(C(=O)NO)cc1)S(=O)(=O)c1cc(F)c(F)c(F)c1F` the inhibition [1] was “Active”, the IC50 (Histone deacetylase 7) was > 5 µM and the IC50 at 72 h [2] was 5.76 µM. For the same compound, the IC50 at 72 h [3] was 8.8 µM, the inhibition [4] was “Active” and the Activity (MV4-11 [5]) was 3.32%. The Activity (MV4-11 [6]) was 39% and the IC50 at 72 h (in vitro) was > 50 µM.
